Source: patent US20240197852A1, “PSORALEN-I[…] G[…] AND METHODS THEREOF” (Wake Forest University Health Sciences, priority 2021, published 2024)

How the values were obtained:
E. coli strain H10407 [1] = assay: 8-MOP and UVA crosslinking of E. coli, overnight growth in LB broth; type: cell-based; settings: 50, 60, 70, or 80 μg/ml 8-MOP; 1 Joule/cm^2 or 7 Joules/cm^2 UVA
Procedure: (§1) Early experiments on the effects of different doses of 8-MOP, AMT, and of UV on bacterial cells were done in E. coli strain H10407 due to its relative ease and speed of growth. H10407 was diluted 1:500 in LB and grown for 5 hours at 37 °C in a shaker. Psoralen inactivation was performed as described for GC. Bacterial cells were washed and inoculated into LB broth or plated onto LB agar to measure overnight growth as an indication of the presence of residual CFU.
Inactivation of E. coli with AMT+UVA light: Other labs had previously reported the use of the psoralen derivatives 8-MOP or S-59/psoralen and UVA light to inactivate bacterial cultures containing DNA repair mutations. In order to determine if a bacterial culture not containing a DNA repair mutation with 8-MOP and UVA crosslinking could be inactivated, E. coli strain H10407 was used. Multiple separate cultures of this strain were treated with 50, 60, 70, or 80 μg/ml 8-MOP and treated with 1 Joule/cm^2 or 7 Joules/cm^2 UVA light and then diluted into LB broth and grown overnight. If even one cell in each culture survived the treatment with 8-MOP and UVA, it was expected to see growth in the overnight culture. Control cultures that received UVA but no 8-MOP, 8-MOP but no UVA, and no UVA or 8-MOP were also included. Heat killed cultures were diluted and grown overnight as a negative control.

[2] = tested on: FA1090 uvrB mutant strain 1-81-S2 (uvrB:kan #4 Opa+); assay: one round of AMT and UV light crosslinking of GC uvrB mutant, plating, percent cell survival; type: cell-based, Neisseria gonorrhoeae; settings: 1 Joule/cm^2
Procedure: (§2) Psoralen Inactivation: GC strains were grown overnight on GC agar plates. Overnight growth (between 16 and 18 hours) was resuspended in 5 mls of GCP and OD600 was adjusted to 1.0. Cells were diluted 2:25 in 5 mls GCP supplemented with sodium bicarbonate and Isovitalex and grown at 37 °C in the shaker for 7 hours at which time AMT was added and the cultures were incubated in the shaker for another hour. All bacterial cultures were then moved into 6 well cell culture plates and treated with 1 Joule/cm^2 UV light using an Analytik Jena Crosslinker with UVA light source (365 nm) (model #CL-1000L, Upland, CA). Cultures were returned to tubes and a second dose of AMT was added. Cultures were shaken for 1 hour at 37 °C and then crosslinked again at the same UV dose. Samples were washed in PBS and then plated on GC agar and incubated for two days at 37 °C and 5% CO2 to measure growth as an indication of the presence of residual CFU.
(§3) Evaluating the use of a GC uvrB mutants: In order to examine the effect of a mutation in the uvrB locus that affects DNA repair GC strains FA1090 and its derivatives 1-81-S2 (uvrB:kan #4 Opa+) and 1-81-S2 (uvrB:kan #9) were tested. uvrB mutants have been used by other labs to reduce the amount of 8-MOP or S-59 needed to inactivate bacterial cells and to therefore leave them with higher metabolic activity (KBMA). FA1090 and mutant strains were treated with varying doses of AMT, grown for one hour at 37 °C, and then irradiated with UVA at 1 Joule/cm^2. The entire culture was washed and plated onto a single plate. Surviving colonies were counted and compared to live cultures to determine percent cell survival. Multiple cultures of each strain were tested at each dosage level. (see Table 3).

[3] = tested on: FA1090 uvrB mutant strain 1-81-S2 (uvrB:kan #9); assay: as above; type: cell-based, Neisseria gonorrhoeae; settings: 1 Joule/cm^2
Procedure: as §2, §3

E. coli strain H10407 [4] = assay: AMT and UVA crosslinking of E. coli (one round), overnight growth in LB broth; type: cell-based
Procedure: as §2, §1
We then used the psoralen derivative 4-aminomethyl-4,5′, 8-trimethylpsoralen (AMT). Multiple separate cultures of the E. coli strain H10407 were treated with doses of psoralen derivative 4-aminomethyl-4,5′, 8-trimethylpsoralen (AMT) ranging from 0 to 60 μg/ml and treated with 1 Joule/cm^2, 7 Joules/cm^2, or 10 Joules/cm^2 UVA light and then diluted into LB broth and grown overnight. […] Control cultures that received no treatment always grew up overnight as did cultures that only received AMT and no UVA or UVA treatment with no AMT. Heat killed cultures never grew up overnight. […] (See Table 1). Cultures that had no growth were left to grow for 3 more days to make sure that no growth came up later.

E. coli strain H10407 [5] = assay: two doses of AMT and two rounds of UVA on E. coli, plating for surviving CFU; type: cell-based; settings: for CFUs of treated cells / Percent Survival: 1 Joule/cm^2 two times
Procedure: as §2, §1
The desire was a method to inactivate the culture consistently with AMT. E. coli strain H10407 was treated with AMT and UVA as before, but then immediately retreated the same culture once again with AMT at the same dosage, allowing the culture to shake for 1 hour, and then crosslinking it a second time and plating the cells to see which cultures would still have surviving cells capable of growth. By plating the cells and comparing to the CFUs of an untreated culture we were able to determine a percentage of surviving cells. Multiple cultures were treated at every drug dose. (See Table 2)
Thirty separate 1 ml cultures of H10407 were grown, treated with AMT at a dose of 40 μg/ml two times, and given 1 Joule/cm^2 of UVA two times and allowed to grow overnight on LB plates. […] LB plates were kept for multiple days to ensure there was no later growth.

GC strain FA1090 [6] = assay: two rounds of AMT and UVA on GC, plating on GC agar for survivors; type: cell-based, Neisseria gonorrhoeae; settings: thirty 1 ml cultures, approximately 3×10^10 cells; 20 μg/ml AMT and 1 Joule/cm^2 UVA two times
Procedure: as §2
To get consistent inactivation of GC we treated FA1090 with two rounds of AMT and UVA. Thirty separate 1 ml cultures of FA1090 were given 20 μg/ml AMT and irradiated with 1 Joule/cm^2 UVA two times and plated onto 30 GC agar plates and grown for two days.

GC strain FA1090 [7] = assay: one round of AMT and UV light crosslinking of GC, plating, percent cell survival; type: cell-based, Neisseria gonorrhoeae; settings: 1 Joule/cm^2
Procedure: as §2, §3

Structure (SMILES): COc1c2occc2cc2ccc(=O)oc12 [8-MOP, 8-methoxypsoralen]
- inactivation of cultures (overnight growth) (E. coli strain H10407 [1]): not inactivated

Structure (SMILES): Cc1oc2c(C)c3oc(=O)cc(C)c3cc2c1CN [AMT, 4-aminomethyl-4,5′, 8-trimethylpsoralen]
- Percent Cell Survival ([2]; AMT 2 ug/ml): 5.56 × 10^−8%
- Percent Cell Survival ([2]; AMT 5 ug/ml): 0%
- Percent Cell Survival ([2]; AMT 7 ug/ml): 0%
- Percent Cell Survival ([2]; AMT 10 ug/ml): 0%
- Percent Cell Survival ([2]; AMT 30 ug/ml): 0%
- Percent Cell Survival ([2]; AMT 50 ug/ml): 0%
- Percent Cell Survival ([2]; AMT 70 ug/ml): 1.11 × 10^−6%
- Percent Cell Survival ([2]; AMT 100 ug/ml): 0%
- Percent Cell Survival ([3]; AMT 2 ug/ml): 7.23 × 10^−7%
- Percent Cell Survival ([3]; AMT 5 ug/ml): 4.0 × 10^−7%
- Percent Cell Survival ([3]; AMT 7 ug/ml): 6.3 × 10^−8%
- Percent Cell Survival ([3]; AMT 10 ug/ml): 0%
- Percent Cell Survival ([3]; AMT 30 ug/ml): 0%
- Percent Cell Survival ([3]; AMT 50 ug/ml): 0%
- Percent Cell Survival ([3]; AMT 70 ug/ml): 0%
- Percent Cell Survival ([3]; AMT 100 ug/ml): 0%
- Percentage of cultures inactivated (E. coli strain H10407 [4]; AMT 20 ug/ml, 1 Joule/cm^2): 0%
- number of cultures inactivated (no overnight growth) / total cultures treated (E. coli strain H10407 [4]; AMT 20 ug/ml, 1 Joule/cm^2): 0/5
- Percentage of cultures inactivated (E. coli strain H10407 [4]; AMT 20 ug/ml, 7 Joules/cm^2): 67%
- number of cultures inactivated (no overnight growth) / total cultures treated (E. coli strain H10407 [4]; AMT 20 ug/ml, 7 Joules/cm^2): 2/3
- Percentage of cultures inactivated (E. coli strain H10407 [4]; AMT 30 ug/ml, 1 Joule/cm^2): 0%
- number of cultures inactivated (no overnight growth) / total cultures treated (E. coli strain H10407 [4]; AMT 30 ug/ml, 1 Joule/cm^2): 0/5
- Percentage of cultures inactivated (E. coli strain H10407 [4]; AMT 30 ug/ml, 7 Joules/cm^2): 33%
- number of cultures inactivated (no overnight growth) / total cultures treated (E. coli strain H10407 [4]; AMT 30 ug/ml, 7 Joules/cm^2): 1/3
- Percentage of cultures inactivated (E. coli strain H10407 [4]; AMT 40 ug/ml, 1 Joule/cm^2): 60%
- number of cultures inactivated (no overnight growth) / total cultures treated (E. coli strain H10407 [4]; AMT 40 ug/ml, 1 Joule/cm^2): 3/5
- Percentage of cultures inactivated (E. coli strain H10407 [4]; AMT 50 ug/ml, 1 Joule/cm^2): 82%
- number of cultures inactivated (no overnight growth) / total cultures treated (E. coli strain H10407 [4]; AMT 50 ug/ml, 1 Joule/cm^2): 9/11
- Percentage of cultures inactivated (E. coli strain H10407 [4]; AMT 50 ug/ml, 7 Joules/cm^2): 78%
- number of cultures inactivated (no overnight growth) / total cultures treated (E. coli strain H10407 [4]; AMT 50 ug/ml, 7 Joules/cm^2): 7/9
- Percentage of cultures inactivated (E. coli strain H10407 [4]; AMT 50 ug/ml, 10 Joules/cm^2): 80%
- number of cultures inactivated (no overnight growth) / total cultures treated (E. coli strain H10407 [4]; AMT 50 ug/ml, 10 Joules/cm^2): 12/15
- Percentage of cultures inactivated (E. coli strain H10407 [4]; AMT 60 ug/ml, 1 Joule/cm^2): 80%
- number of cultures inactivated (no overnight growth) / total cultures treated (E. coli strain H10407 [4]; AMT 60 ug/ml, 1 Joule/cm^2): 4/5
- inactivation of cultures (overnight growth) (E. coli strain H10407 [4]; AMT up to 60 μg/ml, 1, 7 or 10 Joules/cm^2 UVA, one round): sometimes completely inactivated
- CFUs of treated cells (E. coli strain H10407 [5]; AMT 10 ug/ml two doses): 79
- Percent Survival (E. coli strain H10407 [5]; AMT 10 ug/ml two doses): 2.6 × 10^−6%
- CFUs of treated cells (E. coli strain H10407 [5]; AMT 30 ug/ml two doses): 2
- Percent Survival (E. coli strain H10407 [5]; AMT 30 ug/ml two doses): 5 × 10^−8%
- CFUs of treated cells (E. coli strain H10407 [5]; AMT 35 ug/ml two doses): 55
- Percent Survival (E. coli strain H10407 [5]; AMT 35 ug/ml two doses): 6.1 × 10^−7%
- CFUs of treated cells (E. coli strain H10407 [5]; AMT 40 ug/ml two doses): 0
- Percent Survival (E. coli strain H10407 [5]; AMT 40 ug/ml two doses): 0%
- surviving cells capable of growth (E. coli strain H10407 [5]; thirty 1 ml cultures, approximately 3.7×10^10 cells, 40 μg/ml AMT and 1 Joule/cm^2 UV two times): no cells still capable of growth
- survivors after plating on GC agar, two days (GC strain FA1090 [6]): No survivors were detected
- Percent Cell Survival (GC strain FA1090 [7]; AMT 2 ug/ml): 7.85 × 10^−6%
- Percent Cell Survival (GC strain FA1090 [7]; AMT 5 ug/ml): 1.23 × 10^−6%
- Percent Cell Survival (GC strain FA1090 [7]; AMT 7 ug/ml): 0%
- Percent Cell Survival (GC strain FA1090 [7]; AMT 10 ug/ml): 0%
- Percent Cell Survival (GC strain FA1090 [7]; AMT 30 ug/ml): 0%
- Percent Cell Survival (GC strain FA1090 [7]; AMT 50 ug/ml): 0%
- Percent Cell Survival (GC strain FA1090 [7]; AMT 70 ug/ml): 2.56 × 10^−7%
- Percent Cell Survival (GC strain FA1090 [7]; AMT 100 ug/ml): 0%
